Measured values as given in patent publication US9303015B2, “Heteroaryl linked quinolinyl modulators of RORγt” (Janssen Pharmaceutica NV, priority 2012, dated 2016).
Where a name gives a salt, the structure may show the parent alone.

Experiments:
human RORγt LBD = human RORγt LBD (Homo sapiens (Human), UniProt P51449); experiment: RORγt reporter assay (GAL4-RORγt LBD luciferase, HEK293T cells); assay type: cell-based; settings: for RORγt reporter Assay, % inhibition @ 6 μM: HEK293T cells; for inhibition at 6 µM: HEK-293T, read-out: RORγt reporter Assay, % inhibition @ 6 μM, 6 μM, HEK293T cells
Excerpt: A reporter assay was used to test functional activity of RORγt modulatory compounds on transcriptional activation driven by the RORγt LBD. Cells used in the assay were co-transfected with two constructs. The first construct, pBIND-RORγt LBD, contained the wild type human RORγt LBD fused to the DNA binding domain of the GAL4 protein. The second construct, pGL4.31 (Promega Cat no. C935A), contained multiple GAL4 responsive DNA elements upstream of firefly luciferase. […] The mutant construct was called pBIND-RORγt-AF2. […] The pBIND vector contains the GAL4 DNA Binding Domain (GAL4 DBD) and the renilla luciferase gene under control of the SV40 promoter. Renilla luciferase expression serves as a control for transfection efficiency and cell viability.
The reporter assay was performed by transiently transfecting HEK293T cells with 5 μg of pBIND-RORγt LBD or pBIND-RORγt LBD-AF2 and 5 μg pGL4.31 (Promega Cat no. C935A) using Fugene 6 (Invitrogen Cat no. E2691) at a 1:6 ratio of DNA: Fugene 6 in a T-75 flask in which cells were at least 80% confluent. Twenty four hours after bulk transfection, cells were plated into 96-well plates at 50,000 cells/well in phenol-red free DMEM containing 5% Lipid Reduced FCS and Pen/Strep. Six hours after plating, cells were treated with compounds for 24 hours. Media was removed and cells were lysed with 50 μL 1x Glo Lysis Buffer (Promega). Dual Glo Luciferase Reagent (50 μL/well) was then added and firefly luciferase luminescence was read on an Envision after a ten minute incubation. Finally, Stop and Glo reagent (50 μL/well) was added and renilla luciferase luminescence was read on an Envision after a ten minute incubation. To calculate the effect of compounds on RORγt activity, the ratio of firefly to renilla luciferase was determined and plotted against compound concentration. Agonist compounds increase RORγt-driven luciferase expression, and antagonist or inverse agonist compounds decrease luciferase expression.

[1] = test system: IL-17 production by CD4 T cells; experiment: Human Th17 assay; assay type: cell-based; settings: IL-17 in supernatant after 3 days, human CD4+ T cells under Th17 differentiation
Excerpt: The human Th17 assay tests the effect of RORγt modulatory compounds on IL-17 production by CD4 T cells under conditions which favor Th17 differentiation.
Total CD4^+ T cells were isolated from the peripheral blood mononuclear cells (PBMC) of healthy donors using a CD4^+ T cell isolation kit II, following the manufacturer's instructions (Miltenyi Biotec). Cells were resuspended in a medium of RPMI-1640 supplemented with 10% fetal bovine serum, penicillin, streptomycin, glutamate, and β-mercaptoethanol and were added to 96-well plates at 1.5×10^5 per 100 μL per well. 50 μL of compound at titrated concentrations in DMSO were added into each well at final DMSO concentration at 0.2%. Cells were incubated for 1 hour, then 50 μL of Th17 cell differentiation medium was added to each well. The final concentrations of antibodies and cytokines (R&D Systems) in differentiation medium were: 3×10^6/mL anti-CD3/CD28 beads (prepared using human T cell activation/expansion kit, Miltenyi Biotec), 10 μg/mL anti-IL4, 10 μg/mL anti-IFNγ, 10 ng/mL IL113, 10 ng/mL IL23, 50 ng/mL IL6, 3 ng/mL TGFβ and 20 U/mL IL2. Cells were cultured at 37° C. and 5% CO2 for 3 days. Supernatants were collected and the accumulated IL-17 in culture was measured by using MULTI-SPOT® Cytokine Plate following manufacture's instruction (Meso Scale Discovery). The plate was read using Sector Imager 6000, and IL-17 concentration was extrapolated from the standard curve. The IC50s were determined by GraphPad.

Chain of human RORγt LBD (P51449 258-518): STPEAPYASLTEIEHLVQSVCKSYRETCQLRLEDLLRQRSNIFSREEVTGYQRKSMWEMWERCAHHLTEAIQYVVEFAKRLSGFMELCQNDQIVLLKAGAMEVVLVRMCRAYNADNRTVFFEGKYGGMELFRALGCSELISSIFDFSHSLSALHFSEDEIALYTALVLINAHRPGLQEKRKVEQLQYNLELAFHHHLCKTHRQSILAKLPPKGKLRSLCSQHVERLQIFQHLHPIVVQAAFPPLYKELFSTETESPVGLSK

| RORγt reporter Assay, % inhibition @ 6 μM (human RORγt LBD) [%] | IC50 [1] [µM] | IC50 ([1]; Homo sapiens, CD4+ T, 72 h) [µM] | inhibition at 6 µM (human RORγt LBD) [%] | SMILES |
| --- | --- | --- | --- | --- |
| 81 | 0.32 |  |  | CCN(CC)c1nc2ccc(C(O)(c3ccc(C(F)(F)F)nc3)c3cncn3C)cc2c(Cl)c1Oc1ccc(F)cc1 (single isomer, unassigned) [Example 9b] |
| 84 | 0.092 |  |  | CCN(CC)c1nc2ccc(C(O)(c3ccc(C(F)(F)F)nc3)c3cncn3C)cc2c(Cl)c1Oc1ccc(F)cc1 (single isomer, unassigned) [Example 9c] |
| 97 | 0.078 |  |  | CCOc1nc2ccc(C(O)(c3ccc(OC)nc3)c3cncn3C)cc2c(Cl)c1Oc1ccccc1 (single isomer, unassigned) [Example 10b] |
| 103 | 0.095 |  |  | CCOc1nc2ccc(C(O)(c3ccc(OC)nc3)c3cncn3C)cc2c(Cl)c1Oc1ccccc1 (single isomer, unassigned) [Example 10c] |
| 92 |  | 0.44 |  | CCOc1nc2ccc(C(O)(c3ccc(C(F)(F)F)nc3)c3cncn3C)cc2c(C(F)(F)F)c1Oc1ccc(Cl)cc1 (single isomer, unassigned) [Example 25b, (3-(4-Chlorophenoxy)-2-ethoxy-4-(trifluoromethyl)quinolin-6-yl)(1-methyl-1H-imidazol-5-yl)(6-(trifluoromethyl)pyridin-3-yl)methanol] |
|  | 0.051 |  | 92 | CCN(CC)c1nc2ccc(C(O)(c3ccc(C(F)(F)F)nc3)c3cncn3C)cc2c(C(F)(F)F)c1Oc1ccc(Cl)cc1 (single isomer, unassigned) [Example 27b, (3-(4-Chlorophenoxy)-2-(diethylamino)-4-(trifluoromethyl)quinolin-6-yl)(1-methyl-1H-imidazol-5-yl)(6-(trifluoromethyl)pyridin-3-yl)methanol] |
| 89 | 0.49 |  |  | CCN(CC)c1nc2ccc(C(O)(c3ccc(C(F)(F)F)nc3)c3cncn3C)cc2c(C(F)(F)F)c1Oc1ccc(Cl)cc1 (single isomer, unassigned) [Example 27c, (3-(4-Chlorophenoxy)-2-(diethylamino)-4-(trifluoromethyl)quinolin-6-yl)(1-methyl-1H-imidazol-5-yl)(6-(trifluoromethyl)pyridin-3-yl)methanol] |
|  | 0.064 |  | 103 | Cn1cncc1C(O)(c1ccc(C(F)(F)F)nc1)c1ccc2nc(N3CCC3)c(Oc3ccc(Cl)cc3)c(Cl)c2c1 (single isomer, unassigned) [Example 30b, (2-(Azetidin-1-yl)-4-chloro-3-(4-chlorophenoxy)quinolin-6-yl)(1-methyl-1H-imidazol-5-yl)(6-(trifluoromethyl)pyridin-3-yl)methanol] |
| 97 | 0.02 |  |  | Cn1cncc1C(O)(c1ccc(C(F)(F)F)nc1)c1ccc2nc(N3CCC3)c(Oc3ccc(Cl)cc3)c(Cl)c2c1 (single isomer, unassigned) [Example 30c, (2-(Azetidin-1-yl)-4-chloro-3-(4-chlorophenoxy)quinolin-6-yl)(1-methyl-1H-imidazol-5-yl)(6-(trifluoromethyl)pyridin-3-yl)methanol] |
|  |  | 0.11 | 101 | Cn1cncc1C(O)(c1ccc(Cl)cc1)c1ccc2nc(N3CCC3)c(Oc3ccc(C#N)cc3)c(Cl)c2c1 (single isomer, unassigned) [Example 32b, 4-((2-(Azetidin-1-yl)-4-chloro-6-((4-chlorophenyl)(hydroxyl)(1-methyl-1H-imidazol-5-yl)methyl)quinolin-3-yl)oxy)benzonitrile] |
| 101 | 0.056 |  |  | Cn1cncc1C(O)(c1ccc(Cl)cc1)c1ccc2nc(N3CCC3)c(Oc3ccc(C#N)cc3)c(Cl)c2c1 (single isomer, unassigned) [Example 32c, 4-((2-(Azetidin-1-yl)-4-chloro-6-((4-chlorophenyl)(hydroxyl)(1-methyl-1H-imidazol-5-yl)methyl)quinolin-3-yl)oxy)benzonitrile] |
|  |  | 0.18 | 89 | CCN(CC)c1nc2ccc(C(O)(c3ccc(C(F)(F)F)nc3)c3cncn3C)cc2c(C(F)(F)F)c1Oc1ccc(Cl)cc1 (stereo not drawn) [Example 27a, (3-(4-Chlorophenoxy)-2-(diethylamino)-4-(trifluoromethyl)quinolin-6-yl)(1-methyl-1H-imidazol-5-yl)(6-(trifluoromethyl)pyridin-3-yl)methanol] |

The next lines start with the molecule.

| SMILES | RORγt reporter Assay, % inhibition @ 6 μM (human RORγt LBD) [%] | IC50 [1] [µM] | IC50 ([1]; Homo sapiens, CD4+ T, 72 h) [µM] | inhibition at 6 µM (human RORγt LBD) [%] |
| --- | --- | --- | --- | --- |
| CCN(CC)c1nc2ccc(C(O)(c3ccc(C(F)(F)F)nc3)c3cncn3C)cc2c(Cl)c1Oc1ccccc1 (single isomer, unassigned) [Example 6c, (4-Chloro-2-(diethylamino)-3-phenoxyquinolin-6-yl)(1-methyl-1H-imidazol-5-yl)(6-(trifluoromethyl)pyridin-3-yl)methanol] | 88 | 0.21 |  |  |
| CCN(CC)c1nc2ccc(C(O)(c3ccc(OC)nc3)c3cncn3C)cc2c(Cl)c1Oc1ccccc1 (stereo not drawn) [Example 5a, (4-Chloro-2-(diethylamino)-3-phenoxyquinolin-6-yl)(6-methoxypyridin-3-yl)(1-methyl-1H-imidazol-5-yl)methanol] |  |  | 0.13 | 104 |
| CCN(CC)c1nc2ccc(C(O)(c3ccc(C(F)(F)F)nc3)c3cncn3C)cc2c(Cl)c1Oc1ccccc1 (stereo not drawn) [Example 6a, (4-Chloro-2-(diethylamino)-3-phenoxyquinolin-6-yl)(1-methyl-1H-imidazol-5-yl)(6-(trifluoromethyl)pyridin-3-yl)methanol] |  |  | 0.096 | 102 |
| CCN(CC)c1nc2ccc(C(O)(c3cccnc3)c3cccc(Cl)c3)cc2c(Cl)c1Oc1ccccc1 (stereo not drawn) [Example 7, (4-Chloro-2-(diethylamino)-3-phenoxyquinolin-6-yl)(3-chlorophenyl)(pyridin-3-yl)methanol] |  |  | 0.11 | 91 |
| CCN(CC)c1nc2ccc(C(O)(c3cncs3)c3cncn3C)cc2c(Cl)c1Oc1ccccc1 (stereo not drawn) [Example 8, (4-Chloro-2-(diethylamino)-3-phenoxyquinolin-6-yl)(1-methyl-1H-imidazol-5-yl)(thiazol-5-yl)methanol.TFA] |  |  | 0.048 | 95 |
| COc1ccc(C(O)(c2ccc3nc(N(C)C)c(Oc4ccccc4)c(Cl)c3c2)c2cncn2C)cn1 (stereo not drawn) [Example 17, (4-Chloro-2-(dimethylamino)-3-phenoxyquinolin-6-yl)(6-methoxypyridin-3-yl)(1-methyl-1H-imidazol-5-yl)methanol] |  |  | 0.11 | 99 |
| Cn1cncc1C(O)(c1ccc(Cl)cc1)c1ccc2nc(C#N)c(Oc3ccccc3)c(Cl)c2c1 (stereo not drawn) [Example 19, 4-Chloro-6-((4-chlorophenyl)(hydroxy)(1-methyl-1H-imidazol-5-yl)methyl)-3-phenoxyquinoline-2-carbonitrile.TFA] |  |  | 0.17 | 85 |
| CCN(CC)c1nc2ccc(C(O)(c3ccc(Cl)cc3)c3cncn3C)cc2c(C(F)(F)F)c1Oc1ccc(Cl)cc1 (stereo not drawn) [Example 26, (3-(4-Chlorophenoxy)-2-(diethylamino)-4-(trifluoromethyl)quinolin-6-yl)(4-chlorophenyl)(1-methyl-1H-imidazol-5-yl)methanol.TFA] |  |  | 0.51 | 89 |
| CCN(CC)c1nc2ccc(C(O)(c3ccc(OC)nc3)c3cncn3C)cc2c(C(F)(F)F)c1Oc1ccc(Cl)cc1 (stereo not drawn) [Example 28, (3-(4-Chlorophenoxy)-2-(diethylamino)-4-(trifluoromethyl)quinolin-6-yl)(6-methoxypyridin-3-yl)(1-methyl-1H-imidazol-5-yl)methanol.TFA] |  |  | 0.12 | 99 |
